Reference: US11529511B2, “Using alternating electric fields to increase cell membrane permeability” (The Board of Trustees of the Leland Stanford Junior …, priority 2018, dated 2022)

How the values were obtained:
[1] = system: U87-MG cells; assay: 5-ALA uptake measured by PpIX fluorescence, single U87-MG culture; format: cell-based, human
Protocol: Experiments were performed to determine the effects of TTFields on uptake of 5-ALA (as measured by PpIX accumulation and its resultant fluorescence) in glioblastoma cells. Because it is difficult to distinguish the margin between tumor and normal cells using the present 5-ALA bioassay, the measurement of PpIX fluorescence was used to address this issue. Investigations were run to determine whether permeation of 5-ALA through the cellular membrane and into the glioblastoma cells could be increased with TTFields exposure. U87-MG cells were exposed or unexposed to TTFields, each for durations of 6-24 h.
All monovariant statistical comparisons between no TTFields vs. TTFields samples done by Student's t-test for n=3 experiments per time point.

[2] = system: U87-MG/eGFP-fLuc cells; assay: Reversibility of the TTFields effect on uptake (BLI, PpIX, Dextran-FITC fluorescence); format: cell-based, human; conditions: TTFields 24 h vs. none vs. TTFields 24 h followed by 24 h no TTFields
From the text: All experimental conditions were done in triplicate.

[3] = system: U87-MG GBM on PCS-201 fibroblast co-cultures; assay: 5-ALA uptake (PpIX fluorescence) in U87-MG GBM on PCS-201 fibroblast co-cultures
[4] = system: U87-MG cells; assay: Timing of permeability to 7-AAD after cessation of the field, flow cytometry; format: cell-based, human; conditions: 300 kHz, 1.62 V/cm RMS, 24 h; 7-AAD added 15 minutes prior to cessation of the field
Protocol: FIG. 7D depicts the results of an experiment to test how quickly the permeability drops back down after cessation of the alternating electric fields. More specifically, 7-Aminoactinomycin D (7-AAD) is a fluorescent chemical compound with a strong affinity for DNA. […] 7-AAD was introduced into samples at five different times: 15 minutes prior to the cessation of the alternating electric field; immediately after cessation of the alternating electric field; and 15, 30, and 60 minutes after cessation of the alternating electric field. In each case, the cells were incubated with 7-AAD for 30 minutes after introduction of the 7-AAD, followed by flow cytometry analysis of the percentage of cells with increased accumulation of the fluorescent 7-AAD for each of the different timings.

[5] = system: MDA-MB-435 human melanoma cell line cells; assay: Permeability to 7-AAD under alternating electric fields, flow cytometry; format: cell-based; conditions: 150 kHz, 24 h
Protocol: After this 15 minute period, alternating electric field application was terminated and the cells were incubated at room temperature for an additional 15 minutes.
After this 24 hour period, the alternating electric fields were turned off for 15 minutes, after which the 7-AAD was added. After waiting an additional 15 minutes, the percentage of cells with increased accumulation of the fluorescent 7-AAD was determined using flow cytometry.

[6] = system: U87-MG/eGFP-fLuc cells; conditions: TTFields 4 V/cm, 200 kHz, 0.5-24 h vs. no TTFields
Protocol: U87-MG/eGFP-fLuc cells were seeded on Thermanox glass coverslips, allowed to settle and grow, and then subjected to either TTFields or no TTFields.
The coverslips were transferred to a ceramic dish of the Inovitro™ system, which in turn was mounted onto Inovitro™ base plates (Novocure Ltd., Haifa, Israel). Tumor treating fields at 200 kHz (1-4 V/cm) were applied through an Inovitro™ power generator. Incubator ambient temperatures spanned 20-27° C. with a target temperature of 37° C. in the ceramic dishes upon application of the TTFields. Duration of TTFields exposure lasted anywhere from 0.5 to 72 h, after which coverslips were removed and processed for the appropriate bioassays (see below). For reversibility experiments, the TTFields-exposed coverslips were transferred to a regular incubator without TTFields exposure for 24 h (off TTFields period to assess for reversibility of the TTFields effect on cell membrane permeability) prior to processing for the appropriate bioassays. Culture media were exchanged manually every 24 h throughout the experiments to account for evaporation. Corresponding control experiments (no TTFields) were done by placing equivalent coverslips within 6-well or 12-well plates into a conventional humidified tissue culture incubator (37° C., 95% air/5% CO2) and cells grown in parallel with the TTFields-exposed coverslips. […]

[7] = system: GBM39/Luc cells; assay: Drug sensitivity and synergy with TTFields; format: cell-based, human; conditions: TTFields for 3 days vs. no TTFields
[8] = system: U87-MG/GFP-Luc cells; assay: Drug sensitivity and synergy with TTFields; format: cell-based, human; conditions: TTFields for 3 days vs. no TTFields
[9] = system: GBM39 cells; assay: Drug sensitivity with TTFields; format: cell-based, human; conditions: TTFields for 3 days vs. no TTFields
[10] = system: pcGBM2/GFP-Luc cells; conditions: TTFields for 3 days vs. no TTFields
[11] = system: glioblastoma patients; assay: Survival of glioblastoma patients, TTFields plus temozolomide vs. temozolomide alone; format: in vivo, human; conditions: after 1 year of TTFields exposure
From the text: The treatment of glioblastoma (GBM) using alternating electric fields is a novel, validated therapy that has become an additional modality (after surgery chemoradiation and chemotherapy) for anti-cancer treatments. Intermediate frequency alternating electric fields (100-500 kHz) have been studied in detail. […] In the context of treating tumors, alternating electric fields at these frequencies are often referred to as “tumor treating fields” or “TTFields.”
Recurrence of GBM is inevitable and the median time to first recurrence despite standard therapy is approximately 7 months. […] TTFields compliance (≥75% vs. <75%) was an independent predictor of overall survival in the retrospective analysis of the full EF-14 trial dataset and the duration of use of TTFields was also found to affect overall survival. […] Namely, a correlation between the length of TTFields exposure and the duration of its effect on cell membrane permeability after cessation of TTFields was observed. At lengths of TTFields exposure of 0.5-3 h, the duration in BLI augmentation (compared to no TTFields conditions) lasted about 5 min. However, at TTFields exposures of 12-25 h, this difference in BLI between TTFields and no TTFields conditions lasted for more than 20 min.

[12] = system: U87-MG/eGFP-fLuc cells; assay: Annexin-V-APC binding (apoptosis) by fluorescence microscopy; format: cell-based, human; conditions: 21 μM, TTFields-unexposed
Protocol: To test if the imposition of TTFields affects cell membrane properties, and thus membrane permeability, the effect of TTFields on the behavior of fluorescently tagged reagents that bind to the cellular membrane was determined. Initially, the impact of TTFields on the binding of Annexin-V-APC to the membrane of U87-MG/eGFP-fLuc cells was measured. Annexin-V-APC binding is a signature of early apoptosis which is characterized by ruffling of the membrane.

[13] = system: human glioblastoma cells; assay: Growth inhibition by TTFields in conjunction with Withaferin A; format: cell-based
From the text: In this figure, 5-ALA=5-aminolevulinic acid; Ethidium D=ethidium bromide; and FITC=fluorescein isothiocyanate.

[14] = system: KR158B; assay: Bioluminescence of Renilla luciferase-expressing astrocytoma cells, TTFields vs. no TTFields; format: cell-based, murine
Protocol: Studies were then performed that validate the hypothesis.
Renilla luciferase activity is not dependent upon ATP and magnesium (as opposed to firefly luciferase). Thus, it is believed that the induction of bioluminescence by TTFields was not due to alterations in endogenous pools of ATP.

[15] = system: MDA-MB-435 cells, wild type; assay: Intracellular accumulation of doxorubicin under alternating electric fields; format: cell-based, human; conditions: 10 μM, 1 h; 150 kHz, 1.62 V/cm vs. no field
[16] = system: MDA-MB-435 cells, doxorubicin resistant; assay: as above; format: cell-based, human; conditions: 10 μM, 1 h; 150 kHz, 1.62 V/cm vs. no field
[17] = system: MDA-MB-235 cells; assay: Drug sensitivity and synergy with TTFields; format: cell-based; conditions: TTFields for 3 days vs. no TTFields
[18] = system: MES-SA cells; assay: Intracellular accumulation of doxorubicin under 150 kHz alternating electric fields; format: cell-based; conditions: 10 μM, 1 h, 1.62 V/cm RMS, 24 hours vs. no field
[19] = system: MCF-7 cells, mitoxantrone resistant; assay: Intracellular accumulation of mitoxantrone under alternating electric fields; format: cell-based, human; conditions: 2 μM, 1 h; 150 kHz, 1.62 V/cm vs. no field
Protocol: (§1) The intracellular accumulation of mitoxantrone was then measured.

[20] = system: MCF-7 cells, wild type; assay: as above; format: cell-based, human; conditions: 2 μM, 1 h; 150 kHz, 1.62 V/cm vs. no field
Protocol: as §1

[21] = molecular target: T1, firefly luciferase (Photinus pyralis, UniProt P08659); assay: Activity of purified firefly luciferase exposed to TTFields; format: biochemical; conditions: TTFields vs. no TTFields, p<0.01
T1 construct: purchased Sigma Aldrich Inc SRE0045-2MG
T1 sequence (P08659 whole entry): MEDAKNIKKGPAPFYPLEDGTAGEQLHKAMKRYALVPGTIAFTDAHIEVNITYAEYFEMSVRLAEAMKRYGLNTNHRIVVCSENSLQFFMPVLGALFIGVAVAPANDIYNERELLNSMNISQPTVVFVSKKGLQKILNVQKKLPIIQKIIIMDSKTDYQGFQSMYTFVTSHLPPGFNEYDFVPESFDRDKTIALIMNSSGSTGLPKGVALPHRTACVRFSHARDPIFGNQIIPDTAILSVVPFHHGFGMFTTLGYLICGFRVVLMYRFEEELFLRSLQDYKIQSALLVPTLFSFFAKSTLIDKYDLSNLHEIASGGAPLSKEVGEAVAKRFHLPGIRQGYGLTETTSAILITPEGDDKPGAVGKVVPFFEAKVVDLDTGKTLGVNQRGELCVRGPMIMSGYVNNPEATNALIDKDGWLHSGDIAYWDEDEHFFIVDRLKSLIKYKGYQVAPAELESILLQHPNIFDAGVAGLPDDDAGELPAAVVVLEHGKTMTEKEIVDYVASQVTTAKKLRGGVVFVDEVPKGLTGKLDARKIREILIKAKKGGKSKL

In the case of `NCC(=O)CCC(=O)O` [5-ALA, 5-aminolevulinic acid], the “uptake (PpIX fluorescence)” value ([1]; 6 h TTFields (200 kHz) vs. no TTFields, p=0.047) is reported as “significantly increased uptake”, the “uptake (PpIX fluorescence)” value ([1]; 24 h TTFields (200 kHz) vs. no TTFields, p=0.011) is reported as “increase was maintained” and the “uptake with field and after cessation of the field” value [2] is reported as “reversibly increase uptake”. The “rate of PpIX fluorescence intensity increase” value ([3]; TTFields 2, 6, 24 h vs. unexposed co-cultures, p<0.001) was “significantly augmented” and the “tumor to normal cell ratio for PpIX fluorescence” value ([3]; TTFields vs. no TTFields) was “significantly enhances”.

`Cc1c2oc3c(C)c(N)cc(C(=O)N[C@@H]4C(=O)N[C@H](C(C)C)C(=O)N5CCC[C@H]5C(=O)N(C)CC(=O)N(C)[C@@H](C(C)C)C(=O)O[C@@H]4C)c3nc-2c(C(=O)N[C@@H]2C(=O)N[C@H](C(C)C)C(=O)N3CCC[C@H]3C(=O)N(C)CC(=O)N(C)[C@@H](C(C)C)C(=O)O[C@@H]2C)c(N)c1=O` [7-AAD, 7-Aminoactinomycin D] was tested, and the “percentage of cells with increased accumulation of 7-AAD” value [4] was “significant increase in accumulation”, the “percentage of cells with increased accumulation of 7-AAD” value ([5]; 1.62V/cm, 7-AAD added 15 minutes after fields turned off) was about 20% and the “percentage of cells with increased accumulation of 7-AAD” value ([5]; 1.62 V/cm, 7-AAD added for the last 15 minutes of the field) was about 66%.

For `O=C(O)[C@H]1CSC(c2nc3ccc(O)cc3s2)=N1` [D-luciferin], the “uptake with field and after cessation of the field” value [2] was “reversibly increase uptake” and the “permeation of the luciferase substrate through the plasma membrane (bioluminescence)” value [6] was “increased permeation”.

For `CCc1c2c(nc3ccc(OC(=O)N4CCC(N5CCCCC5)CC4)cc13)-c1cc3c(c(=O)n1C2)COC(=O)[C@]3(O)CC` [Irinotecan], the “sensitivity of cells to the drug” value [7] was “improves the sensitivity”.

`O=NN(CCCl)C(=O)NC1CCCCC1` [Lomustine] was tested, and the “sensitivity of cells to the drug” value [8] was “improves the sensitivity”, the “sensitivity of cells to the drug” value [9] was “improves the sensitivity” and the “sensitivity of cells to the drug” value [10] was “improves the sensitivity”.

In the case of `Cn1nnc2c(C(N)=O)ncn2c1=O` [Temozolomide], the “percent increase in overall survival” value [11] is reported as 32%.

In the case of `CC1=C(CO)C(=O)O[C@@H]([C@@H](C)[C@H]2CC[C@H]3[C@@H]4C[C@H]5O[C@]56[C@@H](O)C=CC(=O)[C@]6(C)[C@H]4CC[C@]23C)C1` [Withaferin A], the “Annexin-V-APC binding (positive control for apoptosis)” value [12] is reported as “could be visualized” and the “growth inhibition in conjunction with TTFields” value [13] is reported as “synergistically inhibited the growth”.

With `Oc1ccc(Cc2nc3c(Cc4ccccc4)nc(-c4ccc(O)cc4)cn3c2O)cc1` [coelenterazine] the “permeation of the luciferase substrate through the plasma membrane (bioluminescence)” value [14] was “increased permeation”.

For `COc1cccc2c1C(=O)c1c(O)c3c(c(O)c1C2=O)C[C@@](O)(C(=O)CO)C[C@@H]3O[C@H]1C[C@H](N)[C@H](O)[C@H](C)O1` [doxorubicin], the intracellular accumulation [15] was “increased”, the intracellular accumulation [16] was “increased” and the “sensitivity of cells to the drug” value [17] was “improves the sensitivity”. The “increase of intracellular accumulation” value [18] was “more than 2 ×”.

In the case of `O=C1c2c(O)ccc(O)c2C(=O)c2c(NCCNCCO)ccc(NCCNCCO)c21` [mitoxantrone], the intracellular accumulation [19] is reported as “increased” and the intracellular accumulation [20] is reported as “increased”.

In the case of “firefly luciferase: purified firefly luciferase (SRE0045-2MG) purchased from Sigma Aldrich”, the “activity of purified firefly luciferase” value [21] is reported as “significantly decreased activity”.
